Series [1] relates to Staphylococcus aureus. Kind of series: Antibacterial activity against Staphylococcus aureus ATCC 25923 measured after 12 to 18 hrs. The series is classed as functional.
In series [2] the test system is COLO 205. Description: Cytotoxicity against human COLO205 cells after 48 hrs by MTT assay. It counts as cell-based. The conditions noted are these: COLO 205, 48 h. On the technique in general: Formazan colour is commonly taken as a measure of viable cells.
Series [3] relates to A549. Kind of series: Cytotoxicity against human A549 cells after 48 hrs by MTT assay. The note with it: A549, 48 h. It counts as cell-based.
In series [4] the test system is BEAS-2B. Kind of series: Cytotoxicity against human BEAS2B cells after 48 hrs by MTT assay. The series is classed as cell-based.
Series [5] in a line: Selectivity index, ratio of IC50 for human CCD-841-CoN cells to IC50 for human COLO205 cells. The conditions noted are these: CCD-841-CoN cells versus COLO205 cells, read-out: Ratio IC50.
Series [6] concerns Staphylococcus aureus. Description: Antibacterial activity against methicillin-resistant Staphylococcus aureus ATCC 43300 measured after 12 to 18 hrs. It counts as functional.
The subject of series [7] is CCD-841CoN. Kind of series: Cytotoxicity against human CCD-841-CoN cells after 48 hrs by MTT assay. The series is classed as cell-based.
The subject of series [8] is Escherichia coli. Kind of series: Antibacterial activity against Escherichia coli ATCC 25922 measured after 12 to 18 hrs. It counts as functional.
Series [9] concerns Staphylococcus aureus. Kind of series: Antibacterial activity against methicillin-resistant Staphylococcus aureus ATCC 33591 measured after 12 to 18 hrs. It counts as functional.
Series [10] can be described thus: Selectivity index, ratio of IC50 for human BEAS2B cells to IC50 for human A549 cells. The conditions noted are these: BEAS2B cells versus A549 cells, read-out: Ratio IC50.
For series [11], the system named is Escherichia coli. Kind of series: Antibacterial activity against Escherichia coli ATCC 25922. It counts as functional.
For series [12], the system named is Staphylococcus aureus. Kind of series: Antibacterial activity against Staphylococcus aureus ATCC 25923. It counts as functional.

Values after ≈ are worked out from the molar mass of the structure shown.

As to `COc1ccc(-n2n[n+](C)c3c2C(=O)c2ccccc2C3=O)cc1.O=S(=O)([O-])C(F)(F)F`, the MIC (commonly the smallest concentration in the dilution series that meets the test's criterion for growth inhibition) is 1 to 2 µg/mL in series [1], 2 µg/mL in [6], more than 128 µg/mL in [8] and 0.5 µg/mL in series [9]. Also, the concentration for half-maximal inhibition (IC50) (commonly the point on the concentration scale where inhibition reaches its midpoint) in [2] amounted to 0.7 µg/mL; in [3], 0.78 µg/mL; in series [4], 5.8 µg/mL; in series [7] it was 5.89 µg/mL. In addition, the selectivity ratio in series [5] amounted to 8.41; in [10], 7.44.

Consider `C[n+]1nn(-c2ccc(F)cc2)c2c1C(=O)c1ccccc1C2=O.O=S(=O)([O-])C(F)(F)F`, for which the MIC in series [1] was 1 µg/mL; in series [6] it was 1 µg/mL; in series [8] it was more than 128 µg/mL; in series [9], 0.5 µg/mL. The IC50 in series [2] stood at 2.86 µg/mL; in [3], 2.22 µg/mL; in series [4] it was 14.2 µg/mL; in series [7], 8.16 µg/mL. Further, the results for the selectivity ratio in series [5] and in series [10] were 2.85 and 6.44, respectively.

On to `CCCCCCCC[n+]1nn(-c2ccc([N+](=O)[O-])cc2)c2c1C(=O)c1ccccc1C2=O.O=S(=O)([O-])C(F)(F)F`, for which the MIC in [1] is 8 µg/mL; in [6], 32 µg/mL; in series [9], 16 µg/mL. Further, the IC50 in [2] came to 8.53 µg/mL; in [3] it was 15.6 µg/mL; in [4] it was 21 µg/mL; in series [7], 31 µg/mL. Moreover, the selectivity ratio in [5] was determined as 3.63; in series [10], 4.76.

`CCCCCC[n+]1nn(-c2ccc([N+](=O)[O-])cc2)c2c1C(=O)c1ccccc1C2=O.O=S(=O)([O-])C(F)(F)F`: the MIC was 2 to 4 µg/mL in series [1], 128 µg/mL in series [6] and 1 µg/mL in series [9]. Moreover, the half-maximal inhibitory concentration (IC50) worked out at 21.2 µg/mL in series [2], 48.9 µg/mL in series [3], 38.6 µg/mL in series [4] and 40.2 µg/mL in [7]. Also, the selectivity ratio came out at 1.89 in series [5] and 0.79 in series [10].

In the case of `CC[n+]1nn(-c2ccc([N+](=O)[O-])cc2)c2c1C(=O)c1ccccc1C2=O.O=S(=O)([O-])C(F)(F)F`, the MIC in [1] was 8 to 16 µg/mL; in series [6], 4 to 8 µg/mL; in series [9], 1 to 2 µg/mL. Further, the IC50 in [2] turned out to be 7.72 µg/mL; in series [3], 7.4 µg/mL; in series [4] it was 43.6 µg/mL; in [7], 51.3 µg/mL. For the same compound, the selectivity ratio in series [5] is 6.64; in series [10], 5.89.

With `COc1ccc(-n2n[n+](-c3ccc(OC)c(OC)c3)c3c2C(=O)c2ccccc2C3=O)cc1OC.O=S(=O)([O-])C(F)(F)F`, the MIC was 4 µg/mL in [1], 4 µg/mL in series [6], more than 128 µg/mL in [8] and 2 µg/mL in series [9]. Further, the IC50 in series [3] amounted to 1.6 µg/mL; in series [4], 3.76 µg/mL. Further, the selectivity ratio in series [10] stood at 2.35.

Regarding `CC[n+]1nn(-c2ccc(OC)cc2)c2c1C(=O)c1ccccc1C2=O.O=S(=O)([O-])C(F)(F)F`, the MIC in series [1] was 4 to 8 µg/mL; in [6] it was 2 µg/mL; in series [8], 128 µg/mL; in series [9], 2 µg/mL. For the same compound, the IC50 was found to be 0.82 µg/mL in [2], 0.73 µg/mL in series [3], 5 µg/mL in series [4] and 7.85 µg/mL in series [7]. The values for the selectivity ratio in series [5] and in series [10] were 9.57 and 6.85, respectively.

In the case of `CCCC[n+]1nn(-c2ccc([N+](=O)[O-])cc2)c2c1C(=O)c1ccccc1C2=O.O=S(=O)([O-])C(F)(F)F`, the minimal inhibitory concentration (MIC) in series [1] was 4 µg/mL; in series [6], 8 to 16 µg/mL; in series [9], 2 µg/mL. Besides, the IC50 in series [2] stood at 43.2 µg/mL; in series [3], 44.9 µg/mL; in [4], 49.8 µg/mL; in series [7] it was 42.8 µg/mL. Besides, the selectivity ratio was 0.99 in series [5] and 1.11 in series [10].

`C[n+]1nn(-c2ccc(C#N)cc2)c2c1C(=O)c1ccccc1C2=O.O=S(=O)([O-])C(F)(F)F`: the minimum inhibitory concentration (MIC) in [1] is 2 µg/mL; in series [6], 2 µg/mL; in [8], more than 128 µg/mL; in series [9], 1 µg/mL. Moreover, the IC50 in series [2] is 5.91 µg/mL; in series [3], 5.2 µg/mL; in series [4] it was 30.1 µg/mL; in [7], 32.6 µg/mL. The selectivity ratio in [5] is 5.52.

In the case of `CCCCCCCCCC[n+]1nn(-c2ccc([N+](=O)[O-])cc2)c2c1C(=O)c1ccccc1C2=O.O=S(=O)([O-])C(F)(F)F`, the results for the MIC in series [1], in series [6] and in [9] were 2 to 4 µg/mL, 8 to 16 µg/mL and 8 µg/mL, respectively. Moreover, the IC50 worked out at 7.29 µg/mL in series [2], 7.02 µg/mL in series [3], 7.39 µg/mL in series [4] and 30.6 µg/mL in [7]. Further, the selectivity ratio worked out at 4.2 in series [5] and 1.05 in [10].

Take `CC[n+]1nn(-c2ccc(Cl)cc2)c2c1C(=O)c1ccccc1C2=O.O=S(=O)([O-])C(F)(F)F`: the minimal inhibitory concentration (MIC) in series [1] was 2 to 4 µg/mL; in series [6] it was 2 µg/mL; in series [8], more than 128 µg/mL; in series [9], 1 µg/mL. Moreover, the half-maximal inhibitory concentration (IC50) is 0.78 µg/mL in series [2], 0.85 µg/mL in series [3], 4.22 µg/mL in series [4] and 6.65 µg/mL in series [7]. Besides, the selectivity ratio in [5] came out at 8.53; in [10] it was 4.96.

As to `CCCCCCCCn1n[n+](CC)c2c1C(=O)c1ccccc1C2=O.O=S(=O)([O-])C(F)(F)F`, the minimal inhibitory concentration (MIC) in series [11] is more than 128 µg/mL; in series [12] it was 0.25 to 0.5 µg/mL.

Take `C[n+]1nn(-c2ccc([N+](=O)[O-])cc2)c2c1C(=O)c1ccccc1C2=O.O=S(=O)([O-])C(F)(F)F`: the MIC in series [1] is 2 µg/mL; in [6], 2 µg/mL; in series [8], more than 128 µg/mL; in series [9], 1 µg/mL. Moreover, the IC50 amounted to 4.64 µg/mL in [2], 3.5 µg/mL in series [3], 52.9 µg/mL in series [4] and 55.8 µg/mL in series [7]. The selectivity ratio in [5] is 12; in [10] it was 15.1.

In the case of `NC[C@@H]1O[C@H](O[C@H]2[C@@H](O)[C@H](O[C@@H]3[C@@H](O)[C@H](N)C[C@H](N)[C@H]3O[C@H]3O[C@H](CN)[C@@H](O)[C@H](O)[C@H]3N)O[C@@H]2CO)[C@H](N)[C@@H](O)[C@@H]1O` [FRAMYCETIN], the minimal inhibitory concentration (MIC) in series [1] was 2 to 4 µg/mL (≈ 3.25 to 6.51 µM); in [6] it was more than 256 µg/mL; in series [8], 2 µg/mL (≈ 3.25 µM); in series [9], 256 µg/mL (≈ 416 µM).

On to `CN[C@H](CC(C)C)C(=O)N[C@H]1C(=O)N[C@@H](CC(N)=O)C(=O)N[C@H]2C(=O)N[C@H]3C(=O)N[C@H](C(=O)N[C@H](C(=O)O)c4cc(O)cc(O)c4-c4cc3ccc4O)[C@H](O)c3ccc(c(Cl)c3)Oc3cc2cc(c3O[C@@H]2O[C@H](CO)[C@@H](O)[C@H](O)[C@H]2O[C@H]2C[C@](C)(N)[C@H](O)[C@H](C)O2)Oc2ccc(cc2Cl)[C@H]1O` [VANCOMYCIN], for which the MIC in [6] was 32 µg/mL (≈ 22.1 µM); in series [8], more than 256 µg/mL.

For the origin of these results see ChEMBL document CHEMBL4270614, “Tuning the biological activity of cationic anthraquinone analogues specifically toward Staphylococcus aureus” (Eur J Med Chem, 2018).
